{
  "source": "patent US7199113B2",
  "about": "“Pharmaceutically active compounds and methods of use thereof” (priority 1998, dated 2007)",
  "data": [
    {"target": "T1, human recombinant TF/VIIa complex (lipidated) (Homo sapiens, UniProt P13726)", "T1 construct": "Truncated recombinant human tissue factor (e.g. composed of 243 amino acids) is expressed in E. coli; host or cells: E. coli (TF)", "T1 sequence (P13726 33-275 limits assumed)": "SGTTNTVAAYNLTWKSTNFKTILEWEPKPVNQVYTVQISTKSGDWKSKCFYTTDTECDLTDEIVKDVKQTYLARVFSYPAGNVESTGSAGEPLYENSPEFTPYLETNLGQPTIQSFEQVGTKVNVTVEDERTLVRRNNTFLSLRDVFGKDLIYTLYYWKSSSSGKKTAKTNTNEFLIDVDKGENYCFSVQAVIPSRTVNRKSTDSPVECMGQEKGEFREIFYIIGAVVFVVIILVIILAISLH", "T1 sequence (P08709 61-212 partner limits assumed)": "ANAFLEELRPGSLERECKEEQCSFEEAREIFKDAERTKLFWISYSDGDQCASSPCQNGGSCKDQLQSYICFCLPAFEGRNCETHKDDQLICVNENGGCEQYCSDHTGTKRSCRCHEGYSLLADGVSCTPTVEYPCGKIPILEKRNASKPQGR", "T1 sequence (P08709 213-466 partner limits assumed)": "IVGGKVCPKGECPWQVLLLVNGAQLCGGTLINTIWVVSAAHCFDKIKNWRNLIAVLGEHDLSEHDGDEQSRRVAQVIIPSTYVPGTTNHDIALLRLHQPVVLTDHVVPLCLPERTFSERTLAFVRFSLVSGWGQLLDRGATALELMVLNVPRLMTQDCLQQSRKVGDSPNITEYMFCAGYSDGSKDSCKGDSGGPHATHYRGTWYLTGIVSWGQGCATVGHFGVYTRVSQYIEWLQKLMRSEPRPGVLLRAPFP", "assay": "TF/VIIa-dependent FX activation assay", "assay_type": "biochemical", "details": "statement on FIG. 3", "description": "A more particular example of the primary screening assay discussed previously is as follows. The assay is standard for measuring TF/VIIa-dependent factor X activation. […] In a more preferred embodiment, the primary screening preferably includes the following steps. • 1) admixing in a suitable assay solution about 0.1 nM of human recombinant TF/VIIa complex (lipidated), about 180 nM human FX, and between from about 0.5 μl to about 10 μl of at least one compound to be tested (optionally dissolved in an appropriate vehicle such as water or dimethylsulfoxide (DMSO)) and incubating the reaction at 37° C. for a few minutes up to about an hour or more, • 2) contacting the solution with a suitable chelating agent such as ethylenediaminietetra acetic acid (EDTA) to reduce or stop factor X activation, • 3) contacting the solution with a detectable amount of a chromogenic substrate specific for FXa (e.g., Spectrozyme FXa or S-2765) and incubating same at 37° C.; and • 4) detecting chromophore produced in the solution as being indicative of the factor X activation.\nThe primary screening for compounds that inhibit tissue factor/factor VIIa (TF/VIIa) is based on TF/VIIa-dependent FX activation assay (See flow chart in FIG. 1 of the drawings). In this assay, the ability of TF/VIIa complex to activate FX is determined in two discontinuous stages. […] In the second stage (FXa activity assay), EDTA is added at indicated times to the FX activation mixture to chelate calcium, thus leading to the termination of FX→FXa conversion. Calcium is required for TF/VIIa activity. The activity of FXa is then measured by FXa-specific chromogenic substrates such as S-2222, S-2765, or Spectrozyme FXa. In the primary screening, compounds from a previously prepared chemical library are first tested at relatively high concentrations (˜0.833 mM) in TF/VIIa-dependent FX activation assay to identify hits of potential TF pathway antagonists (see FIG. 1). However, it is evident that the inhibition of TF/VIIa-dependent FX activation by a compound in this enzyme-coupled assay can be attributed to effects of the compound on TF/VIIa and/or FXa activities. Thus, secondary screening tests are designed to determine how inhibition takes place and the inhibition mechanism. In secondary screening experiments, effects of those compounds identified from primary screening are tested on catalytic activities of factor VIIa (FVIIa), factor IXa (FIXa), factor Xa (FXa), thrombin, Russell's viper venom (RVV), and trypsin.\nPrimary screening was done in duplicate in 96-well plates using the TF/VIIa-dependent FX activation assay. All compounds to be screened were dissolved in dimethyl sulfoxide (DMSO), other reagents were prepared or diluted in 25 mM HEPES-NaOH, 5 mM CaCl2, 150 mM NaCl, 0.1% BSA, pH 7.5. For assays where TF was used, purified human recombinant TF (100 nM) was first lipidated with phosphatidylcholine (0.07 mg/ml) and phosphatidylserine (0.03 mg/ml) in 50 mM Tris-HCl, pH 7.5, 0.1% bovine serum albumin (BSA) for 30 minutes at 37° C. A stock solution of TF/VIIa complex was then prepared by combining equal volumes of 100 nM lipidated TF and 100 nM FVIIa The complex was incubated at 37° C. for 30 minutes and then was aliquoted and stored at −70° C. for future uses.\nFor screening assays, 5 μl of each compound (about 10 mM in DMSO) or DMSO were placed in each well of a 96-well plate, followed by adding 45 μl of TF/VIIa complex (0.1 nM). The components in each well were mixed either with pipette tips or by shaking the plate on a Lab-Line titer plate shaker for 30 seconds. After 15 minutes incubation of the plate at a 37° C., 10 μl of human FX (180 nM) was added to each well and mixed as above. The plate was then incubated at 37° C. for 3 to 15 minutes, followed by addition of 10 μl of EDTA (400 mM in 144 mM HEPES, 864 mM NaCl, 0.576% BSA, pH adjusted to 7.5) to each well to terminate FX activation. […]", "values": [
      {"compound": "Nc1ccc(NCC(P(=O)(O)O)P(=O)(O)O)cc1", "note": "[Compound 3]", "blocking activity in standard assay for TF/VIIa-dependent factor X activation": "good blocking activity"},
      {"compound": "NCCCC(O)(P(=O)(O)O)P(=O)(O)O", "note": "[Fosamax, reference compound]", "blocking activity in standard assay for TF/VIIa-dependent factor X activation": "good blocking activity"},
      {"compound": "Cc1ccc(NCC(P(=O)(O)O)P(=O)(O)O)cc1", "note": "[Compound 4]", "blocking activity in standard assay for TF/VIIa-dependent factor X activation": "good blocking activity"},
      {"compound": "O=P(O)(O)C(COc1ccccc1)P(=O)(O)O", "note": "[Compound 6]", "blocking activity in standard assay for TF/VIIa-dependent factor X activation": "good blocking activity"}
    ]},
    {"target": "T2, TF/VIIa complex (Homo sapiens, UniProt P13726)", "T2 construct": "Truncated recombinant human tissue factor (e.g. composed of 243 amino acids) is expressed in E. coli; host or cells: E. coli (TF)", "T2 sequence (P13726 33-275 limits assumed)": "as the sequence (P13726 33-275 limits assumed) above", "T2 sequence (P08709 61-212 partner limits assumed)": "as the sequence (P08709 61-212 partner limits assumed) above", "T2 sequence (P08709 213-466 partner limits assumed)": "as the sequence (P08709 213-466 partner limits assumed) above", "assay": "TF/VIIa-dependent FIX activation assay", "assay_type": "biochemical", "details": "statement on FIG. 3", "description": "In a more particular embodiment, the standard assay preferably includes the following steps: • 1) admixing in a suitable assay solution about 0.7 nM TF/VIIa complex with 300 nM factor IX and 1000 nM factor X, and from between about 0.5 μl to about 10 μl of at least one compound to be tested (optionally dissolved in an appropriate vehicle such as water or dimethylsulfoxide (DMSO)) and incubating the solution at 37° C. from between about a few minutes up to about an hour under conditions suitable for forming FIXa and FXa; • 2) contacting the solution with a suitable chelating agent such as EDTA to stop FIX activation; • 3) contacting the solution with a chromogenic substrate specific for the FXa (e.g., Spectrozyme FXa) and incubating same at 37° C.; and • 4) detecting chromophore in the solution as being indicative of the factor IX activation.\nTF/VIIa is not only able to activate FX, but is also able to convert FIX to FIXa. To examine whether the two antagonists 1 and 2 were able to block FIX activation catalyzed by TF/VIIa. FIX activation experiment was conducted. To each well of a 96-well plate, 5 μl of diluted DMSO or compound was added, followed by 45 μl of TF/VIIa (0.67 nM). After mixing and incubating for 15 minutes at 37° C., 10 μl of FIX (300 nM) was added and incubated for 10 minutes at 37° C. 10 μl of EDTA ([…] in 144 mM HEPES, […], 0.576% BSA, pH adjusted to 7.5) was added, followed by addition of 10 μl of FX (1000 nM), 10 μl of polylysine, and 10 μl of Spectrozyme FXa (6 mM). After 3 hour incubation at 37° C., absorbance at 405 nm was measured following addition of 20 μl of 50% acetic acid. The percent inhibition of TF/VIIa-dependent FIX activation was calculated from OD405 nm values in the absence and presence of a compound.", "values": [
      {"compound": "Nc1ccc(NCC(P(=O)(O)O)P(=O)(O)O)cc1", "note": "[Compound 3]", "blocking activity in standard assay for TF/VIIa-dependent factor IX activation": "good blocking activity"},
      {"compound": "NCCCC(O)(P(=O)(O)O)P(=O)(O)O", "note": "[Fosamax, reference compound]", "blocking activity in standard assay for TF/VIIa-dependent factor IX activation": "good blocking activity"},
      {"compound": "Cc1ccc(NCC(P(=O)(O)O)P(=O)(O)O)cc1", "note": "[Compound 4]", "blocking activity in standard assay for TF/VIIa-dependent factor IX activation": "good blocking activity"},
      {"compound": "O=P(O)(O)C(COc1ccccc1)P(=O)(O)O", "note": "[Compound 6]", "blocking activity in standard assay for TF/VIIa-dependent factor IX activation": "good blocking activity"}
    ]},
    {"target": "T3, TF (243 form lipidated or 219 form unlipidated) (Homo sapiens, UniProt P13726)", "T3 construct": "made in house; host or cells: E. coli (stated for the 243-aa form)", "T3 sequence (P13726 33-251)": "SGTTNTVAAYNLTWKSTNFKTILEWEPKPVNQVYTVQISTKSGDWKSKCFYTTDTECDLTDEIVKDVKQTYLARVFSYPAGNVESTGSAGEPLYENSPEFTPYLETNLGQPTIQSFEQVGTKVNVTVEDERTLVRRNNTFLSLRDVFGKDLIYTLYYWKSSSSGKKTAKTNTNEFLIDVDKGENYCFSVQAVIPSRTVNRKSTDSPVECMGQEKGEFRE", "assay": "Isothermal calorimetry analysis of binding to TF", "details": "not given", "values": [
      {"compound": "1-(bisphosponate)-2-amino(3-hydroxyphenyl)ethyl [Compound 1]", "binding to TF": "directly observed"}
    ]}
  ]
}
